# Reference: article PMC7417534, “Cytochrome P450 inhibition potential and initial genotoxic evaluation of 14-O-[(4,6-diaminopyrimidine-2-yl)thioacetyl] mutilin” (Scientific Reports, 2020)
# Like-named read-outs stand apart in the source and are kept apart here.
# Legend:
# [1] = system: S. typhimurium TA97; assay: Ames test, strain TA97; format: cell-based, Salmonella typhimurium; details: − S9; positive control, 10 μg/plate
# Text: (§1) S. typhimurium strains TA97, TA98, TA100, TA102 and TA1535 were stored and maintained as provided in the standard protocol. Each of the strains was checked for their genetic integrity prior to the experiment, and tested for biotin dependence, histidine dependence, biotin and histidine dependence, rfa marker (crystal violet) and presence of the plasmid pKM101 (ampicillin resistance) or pAQ1 (tetracycline resistance). Different strains were used to identify different types of mutations.
# (§2) The test was carried out at five different concentrations of DPTM. […] Then 1 mL solution was diluted with distilled water by two fold. […] The negative control used in this experiment was 1 mL DMSO which was directly incorporated into 9 mL melted top agar.
# (§3) The Ames test of DPTM was conducted as described in the literatures[42],[43] with some modifications. Briefly, 1 mL of strain was inoculated into 5 mL of nutrient broth, followed by incubating overnight at 37 °C. The mixture comprised respective strains, drug, negative and positive controls with the S9 for testing in the presence of metabolic activation system. For testing without S9, 1 × phosphate buffer saline (PBS, pH 7.4) replaced the S9 mix. The obtained mixtures were added into the tube, mixed well and incubated at 37 °C for 20 min. Then, the top agar was melted and 2 mL of this melted top agar was added to each tube and gently mixed. […] The results were expressed as the number of revertant colonies per plate. The experiments were performed in triplicate.
# [2] = system: CYP3A4; details: cited from earlier work
# [3] = system: S. typhimurium TA100; details: − S9; positive control, 5 μg/plate
# Text: as §1, §2, §3
# [4] = system: S. typhimurium TA1535; details: − S9; positive control, 5 μg/plate
# Text: as §1, §2, §3
smiles,measurement,setting,value
"Nc1ccc([N+](=O)[O-])cc1N [4-nitro-o-phenylenediamine, reference compound]","revertant colonies per plate, TA97",[1],803 ± 37 CFU
C=C[C@]1(C)C[C@@H](OC(=O)CSc2nc3ccc(N)cc3[nH]2)[C@]2(C)[C@H](C)CC[C@]3(CCC(=O)[C@H]32)[C@@H](C)[C@@H]1O [14-O-((5-Amino-benzimidazole-2-yl)thioacetyl) mutilin],IC50,"[2]; read-out: IC50 value, CYP3A4 inhibition",1690 nM
C=C[C@]1(C)C[C@@H](OC(=O)CS[C@@H]2CC[C@@H](N)C[C@H]2O)[C@]2(C)[C@H](C)CC[C@]3(CCC(=O)[C@H]32)[C@@H](C)[C@@H]1O [Lefamulin],IC50,"[2]; read-out: IC50, inhibition for CYP3A4",< 5000 nM
"[N-]=[N+]=[N-].[Na+] [sodium azide, reference compound]","revertant colonies per plate, TA100",[3],984 ± 59 CFU
same,"revertant colonies per plate, TA1535",[4],774 ± 20 CFU
